The target of the assay is Neuronal acetylcholine receptor subunit alpha-7 (Homo sapiens, UniProt P36544). Nature of the assay: Antagonist activity at human alpha-7 nAChR in tsA201 cells coexpressed with Ric3 by FMP assay.

The structures appear in SMILES notation.

Sequence of Neuronal acetylcholine receptor subunit alpha-7 (P36544 whole entry): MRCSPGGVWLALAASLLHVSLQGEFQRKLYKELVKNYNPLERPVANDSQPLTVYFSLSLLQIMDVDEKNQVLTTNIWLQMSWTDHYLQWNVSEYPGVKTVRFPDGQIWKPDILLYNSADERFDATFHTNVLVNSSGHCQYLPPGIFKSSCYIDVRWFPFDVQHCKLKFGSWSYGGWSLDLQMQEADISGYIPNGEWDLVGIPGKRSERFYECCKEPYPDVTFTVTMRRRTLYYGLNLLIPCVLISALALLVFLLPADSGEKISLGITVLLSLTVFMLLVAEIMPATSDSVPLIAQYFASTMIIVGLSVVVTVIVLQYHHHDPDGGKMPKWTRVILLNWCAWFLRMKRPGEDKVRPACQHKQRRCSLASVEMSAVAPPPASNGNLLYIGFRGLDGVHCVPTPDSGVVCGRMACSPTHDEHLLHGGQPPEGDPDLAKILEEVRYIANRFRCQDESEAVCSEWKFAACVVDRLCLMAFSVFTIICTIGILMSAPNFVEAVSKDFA

What is called IC50 is the concentration needed to halve the response being measured. As to `CCN1C[C@]2(COC(=O)c3ccccc3-n3c(O)cc(C)c3O)CC[C@H](OC)[C@]34[C@@H]5C[C@H]6[C@H](OC)[C@@H]5[C@](O)(C[C@@H]6OC)[C@@](O)([C@H]13)[C@@H](OC)[C@H]24` [METHYLLYCACONITINE], inhibition was half-maximal at 8.3 nM (IC50).

For the origin of these results see BindingDB's records for doi:10.1021/jm070574f (University of Copenhagen, 2007).
